In PMC10641818, “Development of First-in-Class Dual Sirt2/HDAC6 Inhibitors as Molecular Tools for Dual Inhibition of Tubulin Deacetylation” (Journal of Medicinal Chemistry, 2023):

Tests used:
[1] = system: α-tubulin acetylation; test: Immunofluorescence microscopy of α-tubulin acetylation in PC-3M-luc cells; type: cell-based; conditions: 20 μM, 5 h
Protocol: The detection of acetylation levels of α-tubulin by immunofluorescence was performed as previously described.[47] In brief, PC-3M-luc cells (25 000 cells per well) were plated in Ibidi 8-well slides (Ibidi, catalogue no. 80826) and incubated overnight at 37 °C, 5% CO2. Next, cells were treated with 20 μM of inhibitor. After 5 h, the medium was removed and the cells washed with PBS and fixed with 4% PFA for 8–10 min at ambient temperature. Cells were rinsed three times with PBS and lysed with extraction buffer (PBS, 0.1% Triton X-100) for 3–5 min at ambient temperature. After another washing step with PBS, blocking buffer (PBS, 0.1% Triton, 5% FCS) was added for at least 10 min before incubating with monoclonal acetylated α-tubulin antibody (1:500, Sigma-Aldrich, catalogue no. T6793) in blocking buffer overnight at 4 °C. […] The cells were rinsed two times with blocking buffer and once with PBS and DAPI in mounting medium ([…] HardSet Antifade Mounting Medium with DAPI, no. H-1500-10) diluted 1:50 in PBS was added and it was incubated for 10 min in the dark. Confocal microscopy was performed with a Leica SP8 confocal microscope equipped with a 40×/1.40 oil objective (Leica Microsystems) keeping the laser settings of the images constant to allow direct comparison of signal intensities between images.

[2] = target: Sirt2 (demyristoylation) (Homo sapiens, UniProt Q8IXJ6); test: Continuous Sirt2 demyristoylation assay (myristoylated peptide substrate); type: biochemical; conditions: peptide-based myristoylated substrate, triplicate; read-out: Sirt2-mediated demyristoylation IC50
Chain of Sirt2 (demyristoylation) (Q8IXJ6 whole entry): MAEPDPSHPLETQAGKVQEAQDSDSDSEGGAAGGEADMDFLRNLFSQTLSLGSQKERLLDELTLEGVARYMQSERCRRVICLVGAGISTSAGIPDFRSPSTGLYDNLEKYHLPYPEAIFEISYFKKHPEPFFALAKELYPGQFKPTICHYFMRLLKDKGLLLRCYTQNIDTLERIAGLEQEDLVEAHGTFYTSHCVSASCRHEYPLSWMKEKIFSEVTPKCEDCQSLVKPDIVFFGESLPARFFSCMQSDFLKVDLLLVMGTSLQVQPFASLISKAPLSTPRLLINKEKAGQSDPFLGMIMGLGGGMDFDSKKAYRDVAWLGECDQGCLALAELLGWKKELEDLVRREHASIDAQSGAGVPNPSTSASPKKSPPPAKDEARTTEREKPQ
Protocol: As a second method to confirm the inhibition of Sirt2-mediated demyristoylation by 33, we used a continuous Sirt2 demyristoylation assay as reported by Zessin et al.[48] In brief, this assay was performed in a black 384-well fluorescence plate in a total volume of 40 μL of Sirt assay buffer (20 mM Tris-HCl, 150 mM NaCl, 5 mg/mL MgCl2, 2 mg/mL BSA, pH 7.8). Dilution series of the inhibitor was done in DMSO. A total of 2 μL of the inhibitor dilutions were incubated with 14 μL of the peptide substrate, referred to as F4 in Zessin et al.[48] (final concentration 40 nM) and 14 μL of Sirt2 solution (final concentration 1 nM) for 5 min at room temperature. In addition to the inhibitor-containing samples, a sample without inhibitors was measured as a positive control, and a sample without enzymes was measured as a negative control. The DMSO concentration was set to 5% (v/v). The reaction was started by the addition of 10 μL of NAD^+ (final concentration 500 μM). The product formation was monitored by the change in fluorescence intensity, and the reaction rate represented the activity. Fluorescence readout was performed with a BMG Fluostar Omega plate reader at following wavelengths: Excitation wavelength: λEx = 485 ± 10 nm, emission wavelength: λEm = 530 ± 10 nm. Inhibition was calculated using the following equation: [drawing 1] […]

[3] = system: MCF-7 breast cancer cells; test: Cell viability assay (MTT) MCF-7; type: cell-based; conditions: 72 h, @ 50 μM
Protocol: (§1) Cell viability assays of HGC27 and PC-3M-luc cells were performed by using the Celltiter 96 Aqueous Nonradioactive Proliferation Assay (Promega). Cells were seeded in sterile 96-well plates at a density of 2000 cells per well and incubated overnight at 37 °C and 5% CO2. Compound or vehicle were added to a final concentration of 0.5% DMSO. […] Cells were seeded at densities of 10^4 cells/well for W1 cells or 2 × 10^3 cells/well for MCF-7 cells. Tests were performed in 96-well plates (Sarstedt AG, Nümbrecht, Germany). After incubation overnight, cells were supplemented with half logarithmic dilution series of the indicated compounds and DPBS (PAN Biotech GmbH, Aidenbach, Germany) as control. Then 72 h after addition of cytostatic treatment, the MTT solution (20 μL, 5 mg/mL) was added into the wells for 1 h at 37 °C and 5% CO2 until formazan crystals were formed. The supernatant was removed, and the cells were dissolved in 200 μL of DMSO. Absorption was analyzed at 570 nm, with background subtraction at 690 nm, using a plate reader (Thermomultiscan EX, Thermo, Schwerte, Germany). Cell viability was then determined by nonlinear regression and a four-parameter logistic equation with variable hill slope. […] The significance of the difference of the effects of 33 and 4 + 57 was determined by using an unpaired, two-tailed t test with Welch’s correction, implemented in GraphPad Prism 8.4.0 (GraphPad, USA). Statistical significance was accepted if p < 0.05. Asterisks indicate *p < 0.05, **p < 0.01.

[4] = system: W1 ovarian cancer cells; test: Cell viability assay (MTT) W1; type: cell-based; conditions: 72 h, @ 50 μM
Protocol: as §1

[5] = system: histone H3 acetylation (marker of HDAC1-3 inhibition); test: Western blot on histone H3 hyperacetylation in MCF-7 cells; type: cell-based; conditions: 24 h, 10 µM
Protocol: Western blots on histone H3 hyperacetylation in MCF-7 cells were performed according to a previously published protocol.[72] In brief, MCF-7 were centrifuged (450g, 4 min, 22 °C) and lysed with cell extraction buffer (Thermo Fisher), supplemented with 0.1 mM PMSF, Halt Protease Inhibitor (Thermo Fisher), and Natriumorthovanadat (Thermo Fisher). Precast gels with a polymerization degree of 4–15% were used (Mini-PROTEAN TGX Stain-Free; Bio-Rad Laboratories GmbH, Munich, Germany). Proteins were transferred to Trans-Blot Turbo-PVDF membrane (Bio-Rad). The membrane was blocked with skimmed milk powder in Tris-buffered saline-Tween 20 (with 0.2% Tween 20) for 60 min, followed by three washing cycles of 10 min using Tris-buffered saline-Tween 20. Afterward, membranes were incubated with primary antibodies for ac.-Histon H3 (Cell Signal, rabbit) and GAPDH (Gene Tex, Irvine, USA, mouse) for a total of 60 min at room temperature and then incubated at 4 °C overnight. […] After rinsing of the secondary antibody, membranes were detected using ClarityECL Western Blotting Substrate (Bio-Rad). For quantitative determination, the StainFree technique was employed (Bio-Rad), as well as normalization, against the housekeeping protein GAPDH, which allows the imaging of whole lysates in SDS-PAGE before blotting and normalization against the total protein. […]

[6] = system: PC-3M-luc prostate cancer cells; test: Cell viability assay (MTS) PC-3M-luc; type: cell-based; conditions: 72 h, @ 50 μM
Protocol: as §1

[7] = system: HGC27 gastric carcinoma cells; test: Cell viability assay (MTS) HGC27; type: cell-based; conditions: 72 h, @ 50 μM
Protocol: as §1

Structure (SMILES)	α-tubulin acetylation (immunofluorescence) [1]	IC50 [2] [µM]	MCF-7 cellular effect [3]	W1 cellular effect [4]	Histone H3 hyperacetylation (cellular class I HDAC off-target inhibition) [5]	PC-3M-luc cellular effect [6]	HGC27 cellular effect [7]
COCCn1cc(COc2cccc(Cc3cnc(NC(=O)CSc4nc(C)cc(C)n4)s3)c2)nn1 [Compound 5, SirReal1.2, reference compound]	very minor	0.48 ± 0.12					
Cc1cc(C)nc(SCC(=O)Nc2ncc(Cc3cccc(OCc4cn(CCCCC(=O)NCc5ccc(C(=O)NO)cc5)nn4)c3)s2)n1 [Compound 32, 4-((5-(4-((3-((2-(2-((4,6-Dimethylpyrimidin-2-yl)thio)acetamido)thiazol-5-yl)methyl)phenoxy)methyl)-1H-1,2,3-triazol-1-yl)pentanamido)methyl)-N-hydroxybenzamide]			ni ^b (ni = no inhibition (cellular effect <20% @ 50 μM))	ni ^b (ni = no inhibition (cellular effect <20% @ 50 μM))	no significant off-target inhibition of class I	ni ^b (ni = no inhibition (cellular effect <20% @ 50 μM))	ni ^b (ni = no inhibition (cellular effect <20% @ 50 μM))
